System: Sprague-Dawley rats
Test: Blood glucose depression by intracolonically administered bovine pancreatic insulin with absorption enhancer
Type: in vivo
Conditions: for Blood glucose as % of basal level: enhancer 0 mg/kg (insulin without enhancer), intracolonic, rats
Method: It is neutralized by 1 equivalent of sodium hydroxide. The pH is adjusted to 7-8 by 1N HCl and saturated sodium bicarbonate. Bovine pancreatic insulin (1.75 mL; Sigma, 10 mg/mL; in pH 8.2 HEPES buffer) is added and mixed by gentle swirling. The solution density is determined so that the required dose may be calculated.
The solution is then given to Sprague-Dawley rats (female, 250-300 g, n=3), intracolonically. Blood samples are taken from the tail vein and glucose levels measured using an OneTouch® UltraSmart® blood glucose meter.
As insulin reduces glucose levels in the blood, a depression in glucose levels indicates insulin reaching the blood efficaciously.

Row | Compound | 50% depression at 60 min. (blood glucose from basal level) (enhancer dose 200 mg/Kg, insulin 7 mg/Kg, procedure of Example 12) | Blood glucose as % of basal level (0 min) [%] | Blood glucose as % of basal level (30 min) [%] | Blood glucose as % of basal level (60 min) [%] | Blood glucose as % of basal level (90 min) [%] | Blood glucose as % of basal level (120 min) [%] | Blood glucose as % of basal level (150 min) [%] | Blood glucose as % of basal level (180 min) [%] | Blood glucose as % of basal level (210 min) [%] | Blood glucose as % of basal level (240 min) [%]
1 | COC(=O)c1ccc(NC(=O)CCC(=O)O)cc1O [Example 20, methyl 4-(3-carboxy-propionylamino)] | negative (a 50% reduction in glucose levels was not reached in 60 minutes) | – | – | – | – | – | – | – | – | –
2 | bovine pancreatic insulin: Bovine pancreatic insulin (Sigma, 10 mg/mL; in pH 8.2 HEPES buffer), the active agent co-administered | – | 100 | 94 ± 4 | 102 ± 7 | 105 ± 3 | 107 ± 7 | 94 ± 7 | 111 ± 7 | 113 ± 4 | 100 ± 7
